# Laboratory results from patent publication US11230538B2, “Herbicides” (SYNGENTA PARTICIPATIONS AG, priority 2016, dated 2022).
# Legend:
# Format in all cases: in vivo
# [1] = tested on: Alopecurus myosuroides (ALOMY); experiment: B1 Pre-emergence herbicidal activity; parameters: key: 5=total damage to plant; 0=no damage to plant; details: pre-emergence application, rate 1000 g/ha, evaluated after 13 days
# Method in brief: (§1)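 Pots of sown seeds were sprayed one day after sowing, pre-emergence, with compound in acetone/water (50:50) containing 0.5% Tween 20. Plants were grown in a glasshouse at 24/16 °C day/night, 14 h light and 65% humidity. Damage was scored after 13 days on a 0 (none) to 5 (total) scale.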
# Avena fatua (AVEFA) [2] = experiment: B1 Pre-emergence herbicidal activity; parameters: key: 5=total damage to plant; 0=no damage to plant; details: pre-emergence application, rate 1000 g/ha, evaluated after 13 days
# Method in brief: as §1
# [3] = tested on: Triticum aestivium (TRZAW); experiment: B1 Pre-emergence herbicidal activity; parameters: key: 5=total damage to plant; 0=no damage to plant; details: pre-emergence application, rate 1000 g/ha, evaluated after 13 days
# Method in brief: as §1
# [4] = tested on: Echinochloa crus-galli (ECHCG); experiment: B1 Pre-emergence herbicidal activity; parameters: key to Pre-emergence herbicidal activity, ECHCG (damage score 0-5): 5=total damage to plant; 0=no damage to plant; details: pre-emergence application, rate 1000 g/ha, evaluated after 13 days
# Method in brief: as §1
# Lolium perenne (LOLPE) [5] = experiment: B1 Pre-emergence herbicidal activity; parameters: key to Pre-emergence herbicidal activity, LOLPE (damage score 0-5): 5=total damage to plant; 0=no damage to plant; details: pre-emergence application, rate 1000 g/ha, evaluated after 13 days
# Method in brief: as §1
# Setaria fabenr (SETFA) = experiment: B1 Pre-emergence herbicidal activity; parameters: key to Pre-emergence herbicidal activity, SETFA (damage score 0-5): 5=total damage to plant; 0=no damage to plant; details: pre-emergence application, rate 1000 g/ha, evaluated after 13 days
# Method in brief: as §1
# Avena fatua (AVEFA) [6] = experiment: B2 Post-emergence herbicidal activity; details: post-emergence application, rate 1000 g/ha, evaluated after 13 days
# Protocol: (§2) Seeds of a variety of test species were sown in standard soil in pots: Triticum aestivium (TRZAW), Avena fatua (AVEFA), Alopecurus myosuroides (ALOMY), Echinochloa crus-galli (ECHCG), Lolium perenne (LOLPE), Zea Mays (ZEAMX), Abutilon theophrasti (ABUTH), Amaranthus retroflexus (AMARE) and Setaria fabenri (SETFA). After 8 days cultivation (post-emergence) under controlled conditions in a glasshouse (at 24/16° C., day/night; 14 hours light; 65% humidity), the plants were sprayed with an aqueous spray solution derived from the formulation of the technical active ingredient in acetone I water (50:50) solution containing 0.5% Tween 20 (polyoxyethelyene sorbitan monolaurate, CAS RN 9005-64-5). The test plants were then grown in a glasshouse under controlled conditions (at 24/16° C., day/night; 14 hours light; 65% humidity) and watered twice daily. After 13 days, the test was evaluated (5=total damage to plant; 0=no damage to plant).
# [7] = tested on: Echinochloa crus-galli (ECHCG); experiment: B2 Post-emergence herbicidal activity; parameters: key to Post-emergence herbicidal activity, ECHCG (damage score 0-5): 5=total damage to plant; 0=no damage to plant; details: post-emergence application, rate 1000 g/ha, evaluated after 13 days
# Method in brief: (§3)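 Plants grown 8 days in a glasshouse (24/16° C day/night, 14 h light, 65% humidity) were sprayed post-emergence with active ingredient formulated in acetone/water (50:50) containing 0.5% Tween 20. Damage was scored after 13 days on a 0–5 scale (5 = total damage).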
# Lolium perenne (LOLPE) [8] = experiment: B2 Post-emergence herbicidal activity; details: post-emergence application, rate 1000 g/ha, evaluated after 13 days
# Protocol: as §2
# [9] = tested on: Alopecurus myosuroides (ALOMY); experiment: B2 Post-emergence herbicidal activity; parameters: key: 5=total damage to plant; 0=no damage to plant; details: post-emergence application, rate 1000 g/ha, evaluated after 13 days
# Method in brief: as §3
# Setaria fabenri (SETFA) = experiment: B2 Post-emergence herbicidal activity; parameters: key: 5=total damage to plant; 0=no damage to plant; details: post-emergence application, rate 1000 g/ha, evaluated after 13 days
# Method in brief: as §3
# [10] = tested on: Triticum aestivium (TRZAW); experiment: B2 Post-emergence herbicidal activity; parameters: key: 5=total damage to plant; 0=no damage to plant; details: post-emergence application, rate 1000 g/ha, evaluated after 13 days
# Method in brief: as §3
SMILES,"Pre-emergence herbicidal activity, ALOMY (damage score 0-5) [1]","Pre-emergence herbicidal activity, AVEFA (damage score 0-5) (Avena fatua (AVEFA) [2])","Pre-emergence herbicidal activity, TRAZW (damage score 0-5) [3]","Pre-emergence herbicidal activity, ECHCG (damage score 0-5) [4]","Pre-emergence herbicidal activity, LOLPE (damage score 0-5) (Lolium perenne (LOLPE) [5])","Pre-emergence herbicidal activity, SETFA (damage score 0-5) (Setaria fabenr (SETFA))","Post-emergence herbicidal activity, AVEFA (damage score 0-5) (Avena fatua (AVEFA) [6])","Post-emergence herbicidal activity, ECHCG (damage score 0-5) [7]","Post-emergence herbicidal activity, LOLPE (damage score 0-5) (Lolium perenne (LOLPE) [8])","Post-emergence herbicidal activity, ALOMY (damage score 0-5) [9]","Post-emergence herbicidal activity, SETFA (damage score 0-5) (Setaria fabenri (SETFA))","Post-emergence herbicidal activity, TRAZW (damage score 0-5) [10]"
O=C(Nc1ccc(-c2cncc(F)c2)nc1C(F)(F)F)C(Cl)Cl [Compound C26],0,2,0,5,1,5,4,5,4,0,5,1
COCC(=O)Nc1ccc(-c2cncc(F)c2)nc1C(F)(F)F [Compound C27],0,3,0,5,1,5,4,5,3,1,5,1
O=C(COc1ccccc1)Nc1ccc(-c2cncc(F)c2)nc1C(F)(F)F [Compound C28],0,3,0,4,1,4,4,5,3,0,5,0
O=C(Nc1ccc(-c2cncc(F)c2)nc1C(F)(F)F)C(Cl)(Cl)Cl [Compound C29],0,4,0,5,1,5,4,5,3,0,5,0
Cc1ccc(C(=O)Nc2ccc(-c3cncc(F)c3)nc2C(F)(F)F)cc1 [Compound C30],2,3,0,5,1,5,4,5,3,0,5,0
O=C(Nc1ccc(-c2cncc(F)c2)nc1C(F)(F)F)c1c(F)cccc1F [Compound C31],1,2,0,4,0,5,3,5,3,0,5,0
